What was measured:
[1] = tested on: boll weevil (Anthonomus grandis); assay: Boll weevil microtiter plate diet test; format: in vivo; details: 120 h, sprayed onto insect diet with eggs, egg and larval mortality after 5 days, read-out: mortality in comparison with untreated controls
Description: B.9 Boll Weevil (Anthonomus grandis)
For evaluating control of boll weevil (Anthonomus grandis) the test unit consisted of 24-well-microtiter plates containing an insect diet and 20-30 A. grandis eggs. The compounds were formulated using a solution containing 75% v/v water and 25% v/v DMSO. Different concentrations of formulated compounds were sprayed onto the insect diet at 20 μl, using a custom built micro atomizer, at two replications. After application, microtiter plates were incubated at about 23±1° C. and about 50±5% relative humidity for 5 days. Egg and larval mortality was then visually assessed.

[2] = tested on: yellow fever mosquito (Aedes aegypti); assay: whole plant or invertebrate; format: in vivo; details: 48 h, freshly hatched larvae in tap water, larval mortality after 2 days, read-out: mortality in comparison with untreated controls
Description: B.12 Yellow Fever Mosquito (Aedes aegypti)
For evaluating control of yellow fever mosquito (Aedes aegypti) the test unit consisted of 96-well-microtiter plates containing 200 μl of tap water per well and 5-15 freshly hatched A. aegypti larvae. The compounds or mixtures were formulated using a solution containing 75% water and 25% DMSO. Different concentrations of formulated compounds or mixtures were sprayed onto the insect diet at 2.5 μl, using a custom built micro atomizer, at two replications. After application, microtiter plates were incubated at 28±1° C., 80±5% relative humidity for 2 days. Larval mortality was then visually assessed.

## C#Cc1ccc(CC(C#N)(C#N)c2ccc(C#N)cc2)cc1 [II-77, 2-(4-cyanophenyl)-2-[(4-ethynylphenyl)methyl]-propanedinitrile]
[1]
  mortality at 2500 ppm: ≥ 75%
[2]
  mortality at 2500 ppm: ≥ 75%
